From article PMC10893061, “Novel 2,5-Diketopiperazines with In Vitro Activities against Protozoan Parasites of Tropical Diseases” (Pharmaceuticals, 2024)
≈ marks a conversion by molar mass, not a printed value. Where two headings read alike, the source gives them in different places.

Experiments:
[1] = test system: Leishmania infantum (MHOM/BR/1974/PP75) in THP-1 macrophages; test: Anti-Leishmania infantum activity assay (infected THP-1 macrophages, red fluorescence); type: cell-based; conditions: for Status: L. infantum, activity status from IC50 and SI; for IC50: Leishmania infantum, L. infantum in THP-1 macrophages, 72 h
Experimental: (§1) Their half-maximum cytotoxic concentrations (CC50) and their selectivity indices (SI), obtained as the ratio of the cytotoxic concentration against the bioactive concentration are shown in Table 2. Theoretically, the higher the SI value, the greater the effectiveness for the target and the lower the toxicity of the compound, characterizing a potentially safe and selective drug.
Cells derived from the human monocytic strain THP-1 were cultured in complete Rowell Park Memorial Institute (RPMI)-1640 medium (supplemented with 10% fetal bovine serum, 100 U/mL penicillin, and 100 μg/mL streptomycin). Monocytes were differentiated into macrophages by the addition of 20 ng/mL phorbol myristate acetate (PMA). […] The IC50 values were determined by non-linear regression using a variable slope model (log[concentration] vs. growth inhibition) with the GraphPad Prism v8.2.0 (Boston, MA, USA) software. Controls with uninfected cells, untreated infected cells, infected cells treated with amphotericin B at 0.25 μM (positive control) or DMSO 1% were used. Quadruplicates were run in the same plate, and the experiments were repeated at least once.

[2] = test system: T. cruzi Tulahuen strain in L929 cells; test: Anti-Trypanosoma cruzi activity assay (infected L929 cells, beta-galactosidase reporter); type: cell-based; conditions: for Status: T. cruzi, activity status from IC50 and SI; for IC50: Trypanosoma cruzi, T. cruzi Tulahuen in L929 cells, 96 h
Experimental: as §1
The in vitro anti-T. cruzi activity was evaluated on L929 cells (mouse fibroblasts) infected with Tulahuen strain of the parasite expressing the Escherichia coli β-galactosidase as reporter gene according to the method described previously. Briefly, four thousand L929 cells were added to each well of a 96-well microtiter plate. After an overnight incubation, a 10 fold excess of trypomastigotes were added to the cells, incubated for 2 h, then replaced with 200 μL of fresh medium and incubated for additional 48 h to establish the infection. For IC50 determination, the cells were exposed to each synthesized compound at serial decreasing dilutions and the plate was incubated for 96 h. Afterwards, 50 μL of 500 μM chlorophenol red beta-D-galactopyranoside (CPRG) in 0.5% Nonidet P40 was added to each well, and the plate incubated for 16 to 20 h, after which the absorbance at 570 nm was measured. Controls with uninfected cells, untreated infected cells, infected cells treated with benznidazole at 3.8 μM (positive control) or 1% DMSO were used. The results were expressed as the percentage of T. cruzi growth inhibition in compound tested cells as compared to the infected cells and untreated cells. The IC50 values were calculated by linear interpolation. Quadruplicates were run in the same plate, and the experiments were repeated at least once.
(§2) IC50 over T. cruzi and L929 cells were determined by linear interpolation and the selectivity index (SI) was calculated by the ratio of CC50 L929 cells/ IC50 T. cruzi.

[3] = Cytotoxicity on THP-1 derived macrophages (AlamarBlue); type: cell-based; conditions: human, THP-1 cells differentiated into macrophages, THP-1 macrophages
Experimental: For the cytotoxicity assay, human monocytic THP-1 cells were differentiated into macrophages in 96-well microtiter plates for 72 h, as described above. The medium was then replaced, and the cells were exposed to the compounds at increasing concentrations starting at IC50 value for each Leishmania spp. line. After 72 h of incubation with the compounds, AlamarBlue™ was added and the absorbance at 570 and 600 nm was measured after 4 h. Controls with untreated and DMSO 1%-treated cells were run in parallel. The results were expressed as the percentual difference in the reduction between treated and untreated cells. The compound concentration that inhibits 50% of the THP-1 cell viability (CC50) was determined. The CC50 values were determined by non-linear regression using a variable slope model (log(concentration) vs. growth inhibition) with the GraphPad Prism v8.2.0 (CA, USA) software. Triplicates were run in the same plate and the experiments were repeated at least once.

[4] = Cytotoxicity on L929 cells (AlamarBlue); type: cell-based; conditions: mouse, L929 mouse fibroblast cells
Experimental: The medium was then replaced, and the cells were exposed to compounds at increasing concentrations starting at IC50 value for T. cruzi. After 96 h of incubation with the compounds, AlamarBlue^TM was added and the absorbance at 570 and 600 nm was measured after 4–6 h. Controls with untreated and DMSO 1%-treated cells were run in parallel. The results were expressed as the percent difference in the reduction between treated and untreated cells. The compound concentration that inhibits 50% of the L929 cell viability (CC50) was determined. Quadruplicates were run in the same plate and the experiments were repeated at least once.
as §2

[5] = Cytotoxicity, neutral red uptake assay on BGM cells; type: cell-based; conditions: BGM monkey kidney cells
Experimental: The BGM cells were incubated with 20 µL of the drugs at different concentrations (≤1000 µg/mL) for 24 h in a 5% CO2 at 37 °C. The neutral red uptake assay was used to evaluate the lysosomal integrity and distinguishes live cells from dead by its ability to incorporate the dye. Briefly, to each well was added 0.2 mL medium containing 50 µg/mL of neutral red solution. The plate was incubated for another 3 h at 37 °C to allow for the uptake of the vital dye into the lysosomes of viable uninjured cells. After removal of medium, 200 µL of a mixture of 0.5% formaldehyde-1% CaCl2 was added to the cells and incubated by 5 min. The supernatant was removed and 100 µL of a solution of 1% acetic acid-50% ethanol was added to each well to extract the dye. After homogenization, the optical density of each well of the plate was measured using a 540 nm wavelength on a spectrophotometer. This absorbance has shown a linear relationship with the number of surviving cells. The cell viability was expressed as the percentage of control absorbance obtained from the untreated cells after subtracting the appropriate background.

[6] = test system: P. falciparum chloroquine-resistant and mefloquine-sensitive W2 clone; test: Anti-Plasmodium falciparum activity assay (SYBR, erythrocytic asexual stages); type: cell-based; conditions: for Status: P. falciparum, activity status from IC50 and SI
Experimental: In vitro assay with P. falciparum culture were performed as described previously. […] The activity was measured using the SYBR assay with the parasite suspension (0.5% parasitemia and 2% hematocrit) with minor modifications. The test compounds, in serial dilutions, were incubated in “U” bottom 96-wells plates. After 48 h at 37 °C, the culture supernatant was removed and replaced by 100 µL of lysis buffer solution [Tris (20 mM; pH 7.5), EDTA (5 mM), saponin (0.008%; wt/vol), and Triton X 100 (0.08%; vol/vol)] followed by addition of 0.2 µL/mL SYBR Safe (Sigma-Aldrich, Carlsbad, CA, USA). The plate content was transferred to a flat bottom plate and incubated in the dark for 30 min. The plate was read in a fluorometer (Synergy H4 Hibrid Reader, Biotek) with excitation at 485 nm and 535 nm of emission. In all tests, the compound activities were expressed by the 50% inhibitory concentration of the parasite growth (IC50) when compared to the drug-free controls and estimated using the curve-fitting software Origin 8.0 (OriginLab Corporation, Northampton, MA, USA).

[7] = test system: Plasmodium; design: method as in PMID 33446930, PMID 33307212; conditions: 30mg/(kg × day), 4-day suppressive test; cited from earlier work
[8] = test system: Plasmodium; design: method as in PMID 33446930, PMID 33307212; conditions: read-out: IC50 plasmodicidal in vitro activity; cited from earlier work
[9] = test system: Plasmodium; design: method as in PMID 28223778; conditions: cited from earlier work
[10] = test system: Plasmodium; design: method as in doi:10.1016/j.tetlet.2016.11.071; conditions: read-out: IC50 anti-plasmodial activity; cited from earlier work
[11] = Plasmodium falciparum, W2, 48 h, P. falciparum W2 clone, 48 h, SYBR, read-out: IC50
[12] = P. falciparum W2 clone, 48 h, SYBR

Compound	Status [2]	IC50 [2] [µg/mL]	CC50 at 96 h [4] [µg/mL]	CC50 at 24 h [5] [µg/mL]	Status [6]	IC50 [6, 11] [µg/mL]	further results
O=C1C(c2ccc(F)cc2)N(c2ccccc2)C(=O)CN1c1ccc(Cl)cc1 (stereo not drawn) [Compound 11]							Status [1]: inactive; IC50 [1]: 38.2 ± 1.8 µg/mL (≈ 96.7 µM)
COc1ccc(N2CC(=O)N(c3ccc(OC)cc3)C(c3ccccc3)C2=O)cc1 (stereo not drawn) [Compound 13]	inactive	22.3 ± 1.1 (≈ 55.4 µM)					
O=C1C(c2ccc(O)cc2)N(c2ccccc2)C(=O)CN1c1ccc(Cl)cc1 (stereo not drawn) [Compound 14]							CC50 at 72 h [3]: 611 ± 1 µg/mL (≈ 1560 µM); Status [1]: ACTIVE; IC50 [1]: 8.3 ± 0.2 µg/mL (≈ 21.1 µM)
O=C1C(c2ccc(O)c(Br)c2)N(c2ccccc2)C(=O)CN1c1ccc(Cl)cc1 (stereo not drawn) [Compound 15]	toxic (selectivity index = CC50/IC50, values < 10 are considered toxic)	11.2 ± 6 (≈ 23.7 µM)	81.8 (≈ 173 µM)	18.5 ± 3.4 (≈ 39.2 µM)	toxic (selectivity index = CC50/IC50, values < 10 are considered toxic)	14.9 ± 0.7	
O=C1C(c2ccccc2F)N(c2ccc(Cl)cc2)C(=O)CN1c1ccc(Cl)cc1 (stereo not drawn) [Compound 17]				139 ± 18.7 (≈ 323 µM)	ACTIVE	< 10	IC50 [6, 12]: 9.5 ± 2.1 µg/mL
O=C1C(c2ccccc2F)N(c2ccc(Br)cc2)C(=O)CN1c1ccc(Cl)cc1 (stereo not drawn) [Compound 19]				110 ± 11.3 (≈ 232 µM)	ACTIVE	< 10	IC50 [6, 12]: 5.4 ± 1.7 µg/mL; IC50 ([6]; Plasmodium falciparum, W2, P. falciparum, corresponds to 5.4 µg/mL, read-out: IC50 (converted to µM)): 12.6 µM
O=C1C(c2ccccc2F)N(c2ccc(F)cc2)C(=O)CN1c1ccc(Cl)cc1 (stereo not drawn) [Compound 20]	toxic (selectivity index = CC50/IC50, values < 10 are considered toxic)	15.4 ± 3 (≈ 37.3 µM)	32.1 (≈ 77.8 µM)	9.4 ± 5.1 (≈ 22.8 µM)		17.6 ± 1.3	
O=C1C(c2ccc(Cl)cc2)N(c2ccc(F)cc2)C(=O)CN1c1ccc(Cl)cc1 (stereo not drawn) [Compound 21]	toxic (selectivity index = CC50/IC50, values < 10 are considered toxic)	16.1 ± 2 (≈ 37.5 µM)	16.8 (≈ 39.1 µM)		inactive	≥ 50	
O=C1C(c2c(F)cccc2Cl)N(c2ccccc2)C(=O)CN1c1ccc(Cl)cc1 (stereo not drawn) [Compound 22]	ACTIVE	7.2 ± 0.9 (≈ 16.8 µM)	> 400				
CO[C@]1(CC(C)C)NC(=O)[C@](O)(Cc2ccccc2)NC1=O [Diatretol]							growth inhibition of the parasite in vivo [7]: more than 50%; IC50 [8]: 0.6 µM
CC(C)C[C@@H]1NC(=O)[C@@H]2CCCN2C1=O [Gancidin W]							in vivo anti-malarial activity [9]: active, low-toxic
Naseseazine C							IC50 [10]: 3.5 µM
